The source of these data is a melting point compilation (Tetko et al.; mined from patent text by program, amines drawn as free bases though some values may be those of a salt).

For orientation: melting point means the temperature, or range, at which the solid turns liquid.

In turn, `CC(CO)NC(=O)C(NC(=O)OCc1ccccc1)C(Cc1ccccc1)C(=O)O` (configuration not stated) registered a melting point of 110 to 111 °C.
To `COc1ccc2c(c1)c(C(C)C(=O)O)cc(=O)n2Cc1ccccc1Cl` (configuration not stated) belongs 187 to 188 °C; to `CN1C(C(=O)OCCO)=C(O)c2ccccc2S1(=O)=O`, 122 to 123 °C.
In turn, `O=C1CNc2ccc(S(=O)(=O)Oc3ccccc3)cc2N1` gave a melting point of 253 to 254 °C.
`NNC1=Nc2ccc(C(F)(F)F)cc2C(c2ccccc2)=NC1` had a melting point of 127 °C.
`CC1(C)CCC(C)(C)c2cc(C#CCc3ccc(C(=O)O)cc3)ccc21`: the melting point was 159 to 160 °C.
As for `C=C(C)C(=O)OCCCCCCOc1ccc(C(=O)Oc2ccc3ccc(=O)oc3c2)cc1`, the melting point lay in the range of 98 to 104 °C.
`CN(N)C(=S)Nc1ccc([N+](=O)[O-])cc1Cl`: the melting point is 164 to 167 °C.
The compound `CCCCCCC(C)(C)c1ccc(C2=CC(O)CCC2)c(O)c1` (configuration not stated) had a melting point of 87 to 88 °C.
To `COc1cc(N)c(Cl)cc1C(=O)NCC1CCN(CCS(=O)(=O)CCc2ccccc2)CC1` belongs 161 to 162 °C; to `CC(=O)c1cc(F)ccc1Oc1nc2ccc([N+](=O)[O-])cc2cc1Cc1ccccc1`, 132 to 133 °C; to `CCOC(=O)c1coc(-c2ccc(Cn3cnc4ccccc43)cc2)n1`, 150 to 152 °C.
In turn, `CON1CCC2(CC1)SC(=O)C(c1c(C)cc(C)cc1C)=C2O` yielded a melting point of 67 to 71 °C.
For the compound `Cc1nc(Cc2ccccc2)c2c(c1O)COC2`, the melting point fell in the range of 212 to 214 °C.
To `CSC(SC)=C(C(=O)c1ccc(C(F)(F)F)cc1S(C)(=O)=O)C(=O)C1CC1` belongs 137 to 139 °C; to `Cn1ncc2c1-c1c(Oc3cc4c(cc3[N+](=O)[O-])OCO4)sc(C(N)=O)c1CC2`, 230 to 231 °C; to `COc1ccc(N(CCCC(=O)O)C(=O)C(C)N(C(=O)c2ccco2)c2ccc(OC)cc2)cc1` (configuration not stated), 204 to 206 °C.
To `NS(=O)(=O)c1ccc(-c2c(-c3ccccc3)noc2COCC(F)(F)CO)cc1` belongs 93 to 94 °C.
The figure for `C=C(c1ccc(-c2ncnn2COCC)cc1)C(O)(Cn1cncn1)c1ccc(F)cc1F` (configuration not stated) is 160 to 162 °C.
In the case of `CCN(CC)C(=O)c1cccnc1OC`, the melting point worked out at 83 °C.
The figure for `COC(=O)[C@H](Cc1cccc2ccccc12)NC(=O)[C@H](CC(=O)OC(C)(C)C)NC(=O)c1cccc(NC(=O)C(Cc2ccc(C#N)cc2)NC(=O)OC(C)(C)C)c1` (mixture of isomers) is 182 to 185 °C; for `COc1ccc(N2CCN(c3c(C)c(C)c4c(c3C3CC3)CC(C)(C)O4)CC2)cc1` it is 121 to 122 °C.
To `CC(C)(C(=O)O)n1c(=O)[nH]c2cc3ccccc3cc2c1=O` belongs 273 to 276 °C; to `CCOC(=O)c1c(S(N)(=O)=O)nc2sccn12`, 164 to 166 °C.
To `NC(=O)c1[nH]cnc1OC(=O)C=Cc1ccc(C=O)cc1` belongs 233 °C; to `CCCCC1(CCCC)CS(=O)(=O)c2ccc(N(C)C)cc2[C@@H](c2ccc(OCCCCC(=O)O)cc2)[C@H]1O`, 76 to 79 °C; to `COC(=O)c1ccc2c(C)csc2c1`, 46 to 47 °C.
Compound `CN1c2ccccc2CCC1c1ccccc1` (configuration not stated) had a melting point of 99 to 101 °C.
Consider `CC(C)c1cc(C(=O)O)oc1C(C)C`, for which the melting point was in the range of 105 to 106 °C.
The figure for `O=C(O)CCCCCCC(=NOCc1ccc(OCc2noc(-c3ccccc3)n2)cc1)c1ccccc1` is 76 to 77 °C; for `CNCCC(O)(COc1ccccc1)c1ccccc1` (configuration not stated) it is 98 to 99 °C; for `O=CNCC1CCCc2cc(NS(=O)(=O)c3cccc(F)c3)ccc21` (configuration not stated) it is 143 to 144 °C.
For `O=c1nc(-c2cccc(Cl)n2)sc2ccccc12`, the melting point fell in the range of 224 to 225 °C.
To `CCOC(=NC(=O)c1ccc(OC)cc1)N1Cc2ccccc2-c2ccccc2C1` belongs 71 to 78 °C.
The figure for `O=C(Nc1cccc2c1C(=O)c1c-2n[nH]c1-c1ccc(C(=O)NN2CCCC2)s1)NN1CCOCC1` is 213 to 215 °C.
`CC(C)(C)c1ccc(S(=O)(=O)N2c3ccccc3C[C@H]2C(=O)NCc2ccc(CC(=O)O)cc2)cc1` yielded a melting point of 80 to 85 °C.
The compound `CC1(C)NC(C)(C)c2ccccc21` had a melting point of 36 to 38 °C.
Turning to `CCCn1c(=O)cc(Cl)n(Cc2ccc(-c3ccccc3C#N)cc2)c1=O`, the melting point is 146 to 147 °C.
`Brc1ccc2ccsc2c1` registered a melting point of 53 to 55 °C.
`O=C(Oc1ccc([N+](=O)[O-])cc1)OC1CCN(C(=O)OCc2ccccc2)CC1` had a melting point of 118 to 120 °C.
`CN1C(=N)N(c2ccccc2)CC1=O` showed a melting point of 169 to 170 °C.
The figure for `Cc1c(NC(=O)c2ccc(OC[C@@H]3CCCO3)cc2)ccc2cc(CNCC(C)C)[nH]c12` is 159 °C.
The figure for `CC(C)(C)N(NC(=O)c1cncc(Br)c1)C(=O)c1ccc(Cl)cc1` is 193 to 197 °C; for `Cc1nc2ccc3c(c2o1)C(=O)CC3` it is 106 to 107 °C; for `O=C1C[C@@H]2[C@@H](/C=C/[C@H](CCc3ccccc3)OC3CCCCO3)[C@H](OC(=O)c3ccc(-c4ccccc4)cc3)C[C@@H]2O1` (some centres not stated) it is 118 to 119 °C.
The figure for `CCCC1CCC(C2CCC(C3CCC(C(=O)OC)C(=O)C3)CC2)CC1` (configuration not stated) is 154 °C.
As for `Cc1sc2c(Br)c3ccccc3c(-c3ccc(OS(=O)(=O)c4scc(C(=O)O)c4O)c(C4CCCC4)c3)c2c1C`, the melting point is more than 230 °C.
To `O=C(CCN1CCCCC1)Nc1ccc2[nH]c3ccc(NC(=O)CCN4CCCCC4)cc3c(=O)c2c1` belongs more than 320 °C.
To `CC(=O)c1ccc2c(c1)CCN(Cc1ccccc1)CC2` belongs 89 to 91 °C.
For the compound `CC(C)(C)CC(C)(C)c1cc(-n2nc3ccc(-c4ccsc4)cc3n2)c(O)c(C(C)(C)c2ccccc2)c1`, the melting point lay within 147 to 149 °C.
The figure for `CC(C)(C)C1=CC(=Cc2cccc([N+](=O)[O-])c2)C=C(C(C)(C)C)C1=O` is 118 °C.
The figure for `CC(C)=C1c2ccccc2-c2ccccc21` is 112 to 113 °C; for `CC(=O)C(C(=O)c1ccc(Cl)cc1)C(=O)c1ccc(C(F)(F)F)cc1[N+](=O)[O-]` (configuration not stated) it is 102 to 104 °C; for `O=c1c(CCCc2cccnc2)cc2cccnc2n1-c1ccc2nsnc2c1` it is 174 °C.
Consider `COc1ccc(N2CCN(c3c(C)c(C)c4c(c3C)C(c3ccc(C)cc3)C(C)(C)O4)CC2)cc1` (configuration not stated), for which the melting point was 189 to 191 °C.
The compound `C[C@@H]1CSC(=O)[C@@H]2CCCN2C1=O` had a melting point of 98 to 101 °C.
In turn, `NS(=O)(=O)Oc1cccc(F)c1` displayed a melting point of 53 to 55 °C.
The figure for `COc1ccc2cc([C@H](C)C(=O)OCCN3CCC(C)(SN=O)CC3)ccc2c1` is 131 °C; for `CC(=O)Nc1ccc(S(=O)(=O)N[C@@H]2COCOC[C@H]2O)cc1` (relative stereo) it is 161 to 163 °C; for `CC(=O)NC(=O)NCC1CC2c3cccc4[nH]c(Br)c(c34)CC2N(C)C1` (configuration not stated) it is 210 to 212 °C.
The figure for `Cc1nc2ccccc2n2c(-c3cc(OCC(O)c4ccccn4)ccc3Cl)nnc12` (configuration not stated) is 193 to 194 °C.
As to `CC(=O)C1CCC2C3CCC4CC(O)C(N5CC(C)OC(C)C5)CC4(C)C3C(=O)CC12C` (configuration not stated), the melting point lay within 172 to 174 °C.
`CCC1(CC)C(=O)NC(C)(C)C(C)(C)N1OC(C)(C)C#N` yielded a melting point of 140 to 145 °C.
To `O=C1CN(C(=O)Cc2ccccc2Cl)N(Cc2ccc(Cl)cc2)C(=O)N1` belongs 224 °C.
Regarding `Cc1ccnc(C(=O)c2ccc(F)cc2)c1`, the melting point lay in the range of 98 to 100 °C.
Regarding `O=C1C=CCCC=CCCC=CCCC=C1`, the melting point lay within 30 to 37 °C.
Regarding `CN1CCN(c2ccc(Nc3ncc4ccc(Sc5ccccc5)n4n3)cc2)CC1`, the melting point lay within 155 to 157 °C.
The compound `NC(=O)N(O)Cc1ccsc1` returned a melting point of 129 to 131 °C.
The figure for `COc1ccc(OC)c2nc(Cl)c(C=O)cc12` is 177 to 178 °C.
The figure for `CC(C)=CCNc1ncnc2c1nc(N)n2C1OC(CO)C(O)C1O` (configuration not stated) is 121 to 124 °C; for `O=C1CC(c2cccc(-n3cnnn3)c2)=Nc2ccc(-c3ccccc3F)cc2N1` it is 179 to 180 °C.
For `CCN(CC)CCNC(=O)c1cnc2cc(I)ccc2n1`, the melting point fell in the range of 60 to 62 °C.
To `CC(=O)C(=Cc1cc(Cl)c(S(C)(=O)=O)c(Cl)c1)C(C)=O` belongs 134 to 136 °C; to `Cc1cc2c(s1)S(=O)(=O)N(C)C(=O)C2C(=O)Nc1ccccc1` (configuration not stated), 184 to 185 °C; to `CCOC(=O)c1ncn2c1CNC(=O)c1c(Cl)cccc1-2`, 278 to 279 °C.
To `Cn1cc(-c2ccccc2)c(=O)c(-c2cccc(OC(F)(F)C(F)F)c2)c1` belongs 119 to 121 °C.
To `Cc1c(C)c2c(c(C)c1O)C(O)CC(C)(COc1ccc(CC3SC(=O)NC3=O)cc1)O2` (configuration not stated) belongs 102 to 118 °C; to `Nc1cc(OCc2ccccc2)nc(N)n1`, 195 °C; to `CCC1(CC)c2ccccc2C(CC)(CC)N1OC(C)(C)C#N`, 63 to 64 °C.
Turning to `CCC(C)c1ccccc1SC1=C(O)CC(CCc2ccccc2)(c2ccccc2)OC1=O` (configuration not stated), the melting point is 67 to 68 °C.
To `CC(=O)Nc1cc(C)c(N)c(C)c1` belongs 148 °C; to `C#CCOc1cc(C(N)=O)cc(Cl)c1OCC#C`, 122 to 125 °C; to `COc1ccc(-n2c(=O)cc(C(F)(F)F)n(C)c2=O)c2c1C(=O)C(C)(C)O2`, 222 to 224 °C.
Compound `N#CCON=C(CCN1CCN(c2ccccn2)CC1)c1ccccc1` showed a melting point of 127 to 128 °C.
To `COc1ccc(-c2[nH]c3cn[nH]c(=O)c3c2Cl)cc1OCC1CC1` belongs 256 to 258 °C; to `OC1(c2c[nH]c(-c3ccc(F)cc3)c2-c2ccncc2)CCNCC1`, 197 to 199 °C.
To `CC(=O)NC[C@H]1CN(c2ccc(N3CCC(=C(C#N)n4cncn4)CC3)c(F)c2)C(=O)O1` belongs 194 to 196 °C.
